Measured values as given in US5462935A, “Cephalosporin compounds” (Lucky Limited, priority 1990, dated 1995).
≈ marks a conversion by molar mass, not a printed value. Where two headings read alike, the source gives them in different places.

Key:
[1] = system: Staphylococcus aureus ATCC 6638p; assay: minimal inhibitory concentration, two-fold agar dilution; type: cell-based; details: ATCC6638P, 20 h
Method in brief: (§1)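 Two-fold serial dilutions of each compound were dispersed in Mueller-Hinton agar, inoculated with test strain at 10^7 CFU/ml, and incubated at 37° C for 20 hours to determine MIC.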

[2] = system: Enterobacter cloacae ATCC 27508; assay: as above; type: cell-based; details: ATCC27508, Muller-Hinton agar, 37° C., 20 hours
Method in brief: as §1

[3] = system: Shigella flexneri ATCC 11836; assay: as above; type: cell-based; details: ATCC11836, Muller-Hinton agar, 37° C., 20 hours
Method in brief: as §1

[4] = system: Staphylococcus epidermidis ATCC 10537; assay: as above; type: cell-based; details: ATCC10537, Muller-Hinton agar, 37° C., 20 hours
Method in brief: as §1

[5] = system: Shigella sonnei ATCC 11060; assay: as above; type: cell-based; details: ATCC11060, Muller-Hinton agar, 37° C., 20 hours
Method in brief: as §1

[6] = system: Proteus vulgaris ATCC 6059; assay: as above; type: cell-based; details: ATCC6059, Muller-Hinton agar, 37° C., 20 hours
Method in brief: as §1

[7] = system: Micrococcus luteus ATCC 9341; assay: as above; type: cell-based; details: ATCC9341, Muller-Hinton agar, 37° C., 20 hours
Method in brief: as §1

[8] = system: Proteus mirabilis ATCC 25933; assay: as above; type: cell-based; details: ATCC25933, Muller-Hinton agar, 37° C., 20 hours
Method in brief: as §1

[9] = system: Escherichia coli ATCC 10536; assay: as above; type: cell-based; details: ATCC10536, Muller-Hinton agar, 37° C., 20 hours
Method in brief: as §1

[10] = system: Escherichia coli ATCC 25922; assay: as above; type: cell-based; details: ATCC25922, Muller-Hinton agar, 37° C., 20 hours
Method in brief: as §1

[11] = system: Bacillus megaterium ATCC 9885; assay: as above; type: cell-based; details: Priestia megaterium, ATCC9885, 20 h
Method in brief: as §1

[12] = system: Pseudomonas aerugionsa ATCC 27853; assay: as above; type: cell-based; details: ATCC27853, Muller-Hinton agar, 37° C., 20 hours
Method in brief: as §1

[13] = system: Providencia rettgeri ATCC 9250; assay: as above; type: cell-based; details: ATCC9250, Muller-Hinton agar, 37° C., 20 hours
Method in brief: as §1

[14] = system: Streptococcus faecalis ATCC 29212; assay: as above; type: cell-based; details: Enterococcus faecalis, ATCC29212, Muller-Hinton agar, 37° C., 20 hours
Method in brief: as §1

[15] = system: Morganella morganii ATCC 8076h; assay: as above; type: cell-based; details: ATCC8076H, 20 h
Method in brief: as §1

[16] = system: Citrobacter freundii ATCC 8090; assay: as above; type: cell-based; details: ATCC8090, Muller-Hinton agar, 37° C., 20 hours
Method in brief: as §1

[17] = system: Serratia marcescens ATCC 27117; assay: as above; type: cell-based; details: ATCC27117, Muller-Hinton agar, 37° C., 20 hours
Method in brief: as §1

ATCC 12228 = assay: as above; type: cell-based; details: Staphylococcus faecalis, ATCC12228, 20 h
Method in brief: as §1

[18] = system: Pseudomonas aerugionsa ATCC 10145; assay: as above; type: cell-based; details: ATCC10145, Muller-Hinton agar, 37° C., 20 hours
Method in brief: as §1

[19] = system: Salmonella typhimurium ATCC 14028; assay: as above; type: cell-based; details: Salmonella enterica, Muller-Hinton agar, 37° C., 20 hours
Method in brief: as §1

[20] = system: Enterobacter aerogenes ATCC 29751; assay: as above; type: cell-based; details: Klebsiella aerogenes, ATCC29751, 20 h
Method in brief: as §1

[21] = system: Pseudomonas aeruginosa ATCC 25619; assay: as above; type: cell-based; details: ATCC25619, Muller-Hinton agar, 37° C., 20 hours
Method in brief: as §1

[22] = system: Klebsiella pneumoniae ATCC 10031; assay: as above; type: cell-based; details: ATCC10031, Muller-Hinton agar, 37° C., 20 hours
Method in brief: as §1

[23] = system: Bacillus cereus ATCC 11778; assay: as above; type: cell-based; details: Bacillus cereus, ATCC11778, 20 h
Method in brief: as §1

[24] = system: Acinetobacter calcoaceticus ATCC 15473; assay: as above; type: cell-based; details: ATCC15473, Muller-Hinton agar, 37° C., 20 hours
Method in brief: as §1

[25] = in vivo absorbency test (plasma concentration, pharmacokinetic parameters); design: species or system SD rats (male); details: rat, iv, 20 mg/kg, rats; for half-life / concentration at 1 min / concentration at 2.5 min / concentration at 5 min / concentration at 10 min / concentration at 20 min / concentration at 40 min / concentration at 1 h / concentration at 2 h / concentration at 3 h / AUC: plasma; for half-life / AUC: Two-Compartment Model; for concentration at 1 min / concentration at 2.5 min / concentration at 5 min / concentration at 10 min / concentration at 20 min / concentration at 40 min / concentration at 1 h / concentration at 2 h / concentration at 3 h: read-out: Plasma Conc.; for concentration at 1 h: 60 min; for concentration at 2 h: 120 min; for concentration at 3 h: 180 min; for AUC: read-out: ACU (converted); for dose excreted: urine, read-out: Urinary recovery
Experimental: In addition to the in vitro tests described above, in vivo absorbency tests for the two selected compounds of formulas (I-S-1) and (I-R-1), along with Ceftadizime, were carried out by administering intravenously, in a dose of 20 mg/kg, each of these two compounds into SD rats (male) weighing 220 to 340 g; […], which were analyzed by employing the bio-assay or agar well method. About 10 to 15 rats were used for each of the compounds.
Notes: (1) Two-Compartment Model
(3) Tested Animal: Rats(male; 220-340 g)

[26] = acute toxicity test, intravenous; details: mouse, in vivo, ICR mice, observed for 14 days
Text: The results are shown in the last row of Table 2.

For `C[C@@H](O/N=C(\C(=O)NC1C(=O)N2C(C(=O)[O-])=C(CSc3nc(N)cc(N)[n+]3N)CS[C@H]12)c1csc(N)n1)C(=O)O` (stereo partly drawn) [I-R-1, 7-[(Z)-2-(2-aminothiazol-4-yl)-2-[(R)-1-carboxyeth-1-oxyimino]acetamido]-3-[(1,4,6-triaminopyrimidinium-2-yl)thiomethyl]-3-cephem-4-carboxylate], the MIC [1] was 8 µg/mL (≈ 13.1 µM), the MIC [2] was 0.016 µg/mL (≈ 0.0262 µM) and the MIC [3] was ≤ 0.008 µg/mL. The MIC [4] was 4 µg/mL (≈ 6.55 µM), the MIC [5] was 0.016 µg/mL (≈ 0.0262 µM) and the MIC [6] was 0.031 µg/mL (≈ 0.0508 µM). It also gave an MIC [7] of 1 µg/mL (≈ 1.64 µM), an MIC [8] of 0.031 µg/mL (≈ 0.0508 µM) and an MIC [9] of 0.031 µg/mL (≈ 0.0508 µM). It also gave an MIC [10] of 0.031 µg/mL (≈ 0.0508 µM), an MIC [11] of 0.5 µg/mL (≈ 0.819 µM) and an MIC [12] of 1 µg/mL (≈ 1.64 µM). The MIC [13] was ≤ 0.008 µg/mL, the MIC [14] was > 128 µg/mL and the MIC [15] was ≤ 0.008 µg/mL. For the same compound, the MIC [16] was 0.031 µg/mL (≈ 0.0508 µM), the MIC [17] was 0.031 µg/mL (≈ 0.0508 µM) and the MIC (ATCC 12228) was 2 µg/mL (≈ 3.28 µM). For the same compound, the MIC [18] was 2 µg/mL (≈ 3.28 µM), the MIC [19] was 0.063 µg/mL (≈ 0.103 µM) and the MIC [20] was 0.5 µg/mL (≈ 0.819 µM). It also gave an MIC [21] of 0.5 µg/mL (≈ 0.819 µM), an MIC [22] of 0.031 µg/mL (≈ 0.0508 µM) and an MIC [23] of 128 µg/mL (≈ 210 µM). For the same compound, the MIC [24] was 2 µg/mL (≈ 3.28 µM), the half-life ([25]; read-out: T1/1(β)) was 30 min and the half-life ([25]; read-out: T1/2(α)) was 4.7 min. For the same compound, the concentration at 1 min [25] was 170000 ng/mL, the concentration at 2.5 min [25] was 102000 ng/mL and the concentration at 5 min [25] was 76900 ng/mL. For the same compound, the concentration at 10 min [25] was 57000 ng/mL, the concentration at 20 min [25] was 39100 ng/mL and the concentration at 40 min [25] was 17700 ng/mL. For the same compound, the concentration at 1 h [25] was 10100 ng/mL, the concentration at 2 h [25] was 2500 ng/mL and the concentration at 3 h [25] was 700 ng/mL. For the same compound, the AUC [25] was 45800 ng·h/mL, the dose excreted [25] was 91% and the LD50 at 336 h [26] was > 5000 mg/kg.
For `C[C@H](O/N=C(\C(=O)NC1C(=O)N2C(C(=O)[O-])=C(CSc3nc(N)cc(N)[n+]3N)CS[C@H]12)c1csc(N)n1)C(=O)O` (stereo partly drawn) [I-S-1, 7-[(Z)-2-(2-aminothiazol-4-yl)-2-[(S)-1-carboxyeth-1-oxyimino]acetamido]-3-[(1,4,6-triaminopyrimidinium-2-yl)thiomethyl]-3-cephem-4-carboxylate], the MIC [1] was 4 µg/mL (≈ 6.55 µM), the MIC [2] was 0.016 µg/mL (≈ 0.0262 µM) and the MIC [3] was 0.016 µg/mL (≈ 0.0262 µM). For the same compound, the MIC [4] was 2 µg/mL (≈ 3.28 µM), the MIC [5] was 0.031 µg/mL (≈ 0.0508 µM) and the MIC [6] was 0.016 µg/mL (≈ 0.0262 µM). For the same compound, the MIC [7] was 0.25 µg/mL (≈ 0.409 µM), the MIC [8] was 0.016 µg/mL (≈ 0.0262 µM) and the MIC [9] was 0.031 µg/mL (≈ 0.0508 µM). It also gave an MIC [10] of 0.031 µg/mL (≈ 0.0508 µM), an MIC [11] of 0.13 µg/mL (≈ 0.213 µM) and an MIC [12] of 0.5 µg/mL (≈ 0.819 µM). The MIC [13] was ≤ 0.008 µg/mL, the MIC [14] was > 128 µg/mL and the MIC [15] was ≤ 0.008 µg/mL. The MIC [16] was 0.031 µg/mL (≈ 0.0508 µM), the MIC [17] was 0.031 µg/mL (≈ 0.0508 µM) and the MIC (ATCC 12228) was 2 µg/mL (≈ 3.28 µM). It also gave an MIC [18] of 1 µg/mL (≈ 1.64 µM), an MIC [19] of 0.063 µg/mL (≈ 0.103 µM) and an MIC [20] of 0.5 µg/mL (≈ 0.819 µM). The MIC [21] was 0.5 µg/mL (≈ 0.819 µM), the MIC [22] was 0.031 µg/mL (≈ 0.0508 µM) and the MIC [23] was 32 µg/mL (≈ 52.4 µM). For the same compound, the MIC [24] was 2 µg/mL (≈ 3.28 µM), the half-life ([25]; read-out: T1/1(β)) was 37.5 min and the half-life ([25]; read-out: T1/2(α)) was 7.6 min. For the same compound, the concentration at 1 min [25] was 147000 ng/mL, the concentration at 2.5 min [25] was 102000 ng/mL and the concentration at 5 min [25] was 72600 ng/mL. The concentration at 10 min [25] was 57300 ng/mL, the concentration at 20 min [25] was 37000 ng/mL and the concentration at 40 min [25] was 19600 ng/mL. For the same compound, the concentration at 1 h [25] was 11200 ng/mL, the concentration at 2 h [25] was 3100 ng/mL and the concentration at 3 h [25] was 1500 ng/mL. The AUC [25] was 47700 ng·h/mL, the dose excreted [25] was 93% and the LD50 at 336 h [26] was > 5000 mg/kg.
